Results published in patent US6531472B2, “Tetralone derivatives” (Hoffman-La Roche Inc., priority 2000, dated 2003).

System: HDAC
Assay: HDAC inhibition screening assay using an aminocoumarin derivative of an omega-acetylated lysine as substrate
Format: biochemical
Settings: compound concentration 10 nM
Procedure: To measure the HDAC inhibitory properties of the compounds of the invention a screening assay was established using an aminocoumarin derivative of an omega-acetylated lysine as substrate for the enzyme. […] Using the protocol described therein, the inhibitory effect of the new compounds was determined at a concentration of 10 nM.

SMILES	Inhibitory effect at 10 nM in % [%]
CC1(/C=C/CCCC(=O)NO)CCc2ccccc2C1=O (stereo not drawn) [Example 7, 6-(2-methyl-1-oxo-1,2,3,4-tetrahydro-naphthalen-2-yl)-hex-5-enoic acid hydroxyamide]	60
COc1ccc2c(c1)CCC(CCCCC(=O)NO)C2=O (stereo not drawn) [Example 2, 5-(6-methoxy-1-oxo-1,2,3,4-tetrahydro-naphthalen-2-yl)-pentanoic acid hydroxyamide]	64
CC1(CCCCCC(=O)NO)CCc2ccccc2C1=O (stereo not drawn) [Example 4, 6-(2-methyl-1-oxo-1,2,3,4-tetrahydro-naphthalen-2-yl)-hexanoic acid hydroxyamide]	71
CCOC(=O)C1(CCCCCCCC(=O)NO)CCc2c(C)cc(C)cc2C1=O (stereo not drawn) [Example 10, 2-(7-Hydroxycarbamoyl-heptyl)-5,7-dimethyl-1-oxo-1,2,3,4-tetrahydro-naphtalene-2-carboxylic acid ethyl ester]	55
CCOC(=O)C1(CCCCCC(=O)NO)CCc2c(OC)cccc2C1=O (stereo not drawn) [Example 9, 2-(5-hydroxycarbamoyl-pentyl)-5-methoxy-1-oxo-1,2,3,4-tetrahydro-naphtalene-2-carboxyclic acid ethyl ester]	57
COc1cccc2c1CCC(CCCCCC(=O)NO)C2=O (stereo not drawn) [Example 8]	72
